Assay results: patent publication US7572765B2, “Conformationally constrained parathyroid hormone (PTH) analogs” (The General Hospital Corporation, priority 2001, dated 2009)
Square brackets hold non-standard residues; d marks the D form. Peptide text beside a SMILES is read from it. hArg = N=C(N)NCCCC[C@H](N)C(=O)O; Aib = CC(C)(N)C(=O)O

Biological target: T1, wild-type human P1R (hP1R-WT) (Homo sapiens, UniProt Q03431)
T1 construct: expressed in transfected cells; host or cells: COS-7 (transient, FuGENE 6)
T1 sequence (Q03431 27-593): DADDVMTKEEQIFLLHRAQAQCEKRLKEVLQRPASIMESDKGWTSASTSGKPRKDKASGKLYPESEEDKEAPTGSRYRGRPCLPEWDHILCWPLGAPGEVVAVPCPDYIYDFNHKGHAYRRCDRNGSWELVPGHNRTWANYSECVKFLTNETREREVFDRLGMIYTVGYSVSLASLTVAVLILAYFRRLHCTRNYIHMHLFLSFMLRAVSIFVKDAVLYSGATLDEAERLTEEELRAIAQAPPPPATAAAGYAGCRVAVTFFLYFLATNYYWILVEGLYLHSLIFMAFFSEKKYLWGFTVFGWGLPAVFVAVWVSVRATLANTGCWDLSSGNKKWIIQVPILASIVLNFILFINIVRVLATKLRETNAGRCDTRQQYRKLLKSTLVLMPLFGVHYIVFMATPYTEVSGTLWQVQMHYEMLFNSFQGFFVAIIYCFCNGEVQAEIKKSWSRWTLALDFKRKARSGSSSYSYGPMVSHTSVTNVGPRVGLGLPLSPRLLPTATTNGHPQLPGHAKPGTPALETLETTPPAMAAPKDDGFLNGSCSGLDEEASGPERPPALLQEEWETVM
Assay: Competition binding in COS-7 cells expressing hP1R-WT
Experimental: Cell Culture. The cell line HKRK-B28 (Takasu, H., et al., J. Bone Miner. Res. 14:11-20 (1999)) was derived from the porcine kidney cell line, LLC-PK1 by stable transfection with plasmid DNA encoding the human P1R and expresses ˜280,000 receptors per cell. These cells, as well as COS-7 cells and SaOS-2-B10 cells, were cultured at […] in T-75 flasks ([…]) in Dulbecco's modified Eagle's medium (DMEM) supplemented with fetal bovine serum (10%), penicillin G (20 units/ml), streptomycin sulfate (20 μg/ml) and amphotericin B (0.05 μg/ml) in a humidified atmosphere containing 5% CO2. Stock solutions of EGTA/trypsin and antibiotics were from GIBCO; fetal bovine serum was from Hyclone Laboratories (Logan, Utah). COS-7 cells sub-cultured in 24-well plates were transfected with plasmid DNA (200 ng per well) encoding the wild-type human P1R or truncated human P1R deleted for residues (24-181) (Shimizu, M., et al., J. Biol. Chem. 275:21836-21843 (2000)) that was purified by cesium chloride/ethidium bromide density gradient centrifugation, and FuGENE 6 transfection reagent (Roche Indianapolis Ind.) according to the manufacturer's recommended procedure. All cells, in 24-well plates, were treated with fresh media and shifted to 33° C. for 12 to 24 h prior to assay.
Competition Binding. Binding reactions were performed with HKRK-B28 cells or in COS-7 cells in 24-well plates. The cells were rinsed with 0.5 mL of binding buffer, and then treated successively with 100 μL binding buffer, 100 μL of binding buffer containing various amounts of unlabeled competitor ligand, and 100 μL of binding buffer containing ca. 100,000 cpm of ^125I-[M]PTH(1-21) or ^125I-[Aib^1,3,M]PTH(1-21)} (ca. 26 fmol; final volume=300 μL). Incubations were 4 to 6 h at 4° C., at which time near equilibrium conditions were attained. Cells were then placed on ice, the binding medium was removed, and the monolayer was rinsed three times with 0.5 mL of cold binding buffer. The cells were subsequently lysed with 0.5 mL […] and counted for radioactivity. For each tracer and in each experiment, the non-specific binding was determined as the radioactivity that bound in the presence of the same unlabeled peptide at a concentration of 1 μM, and was ˜1% of total radioactivity added for each tracer. The maximum specific binding (B0) was the total radioactivity bound in the absence of competing ligand, corrected for nonspecific binding, and for each tracer, ranged from 8% to 20% of the total radioactivity added. Nonlinear regression was used to calculate binding IC50 values (see below). Scatchard transformations of homologous competition binding data derived from studies with 26 fmol of ^125I-[Aib^1,3,M]PTH(1-21) were employed for estimations of apparent equilibrium dissociation constant (kDapps) and total number of ligand binding sites (Bmax), assuming a single class of binding sites and equal affinities of the iodinated and non iodinated ligand.
Data Calculation. Calculations were performed using Microsoft® Excel. Nonlinear regression analyses of binding and cAMP dose-response data were performed using the four-parameter equation: yp=Min+[(Max−Min)/(1+(IC50/x)^slope)]. […] Differences between paired data sets were statistically evaluated using a one-tailed Student's t-test, assuming unequal variances for the two sets. […]

[1] = COS-7 cells, hP1R-WT, tracer 125I-[Aib^1,3,M]PTH(1-21), N.B. = no inhibition of tracer binding

Row | Binding IC50 [1] | Compound | other results
1 | N.B. | CC[C@H](C)[C@H](NC(=O)[C@H](CCC(=O)O)NC(=O)C(C)(C)NC(=O)[C@@H](NC(=O)C(C)(C)N)C(C)C)C(=O)N[C@@H](CCC(N)=O)C(=O)N[C@@H](CC(C)C)C(=O)N[C@@H](CCSC)C(=O)N[C@@H](Cc1c[nH]cn1)C(=O)N[C@@H](CCC(N)=O)C(N)=O [[Aib^1,3,M]PTH(1-10), [Aib^1,3,Gln^10]PTH(1-10)] (H-[Aib]V[Aib]EIQLMHQ-NH2) | 
2 |  | CC[C@H](C)[C@H](NC(=O)[C@H](CCC(=O)O)NC(=O)C(C)(C)NC(=O)[C@@H](NC(=O)C(C)(C)N)C(C)C)C(=O)N[C@@H](CCC(N)=O)C(=O)N[C@@H](CC(C)C)C(=O)N[C@@H](CCSC)C(=O)N[C@@H](Cc1c[nH]cn1)C(=O)N[C@@H](CCC(N)=O)C(=O)N[C@@H](CCCCNC(=N)N)C(N)=O [[Aib^1,3,M]PTH(1-11), AibValAibGluIleGlnLeuMetHisGlnHar] (H-[Aib]V[Aib]EIQLMHQ[hArg]-NH2) | IC50 [1]: 16 µM
3 |  | CC[C@H](C)[C@H](NC(=O)[C@H](CCC(=O)O)NC(=O)C(C)(C)NC(=O)[C@@H](NC(=O)C(C)(C)N)C(C)C)C(=O)N[C@@H](CCC(N)=O)C(=O)N[C@@H](CC(C)C)C(=O)N[C@@H](CCSC)C(=O)N[C@@H](Cc1c[nH]cn1)C(=O)N[C@@H](CCC(N)=O)C(=O)N[C@@H](CCCCNC(=N)N)C(=O)N[C@@H](C)C(=O)N[C@@H](CCCCN)C(=O)N[C@@H](Cc1c[nH]c2ccccc12)C(N)=O [[Aib^1,3,M]PTH(1-14), AibValAibGluIleGlnLeuMetHisGlnHarAlaLysTrp] (H-[Aib]V[Aib]EIQLMHQ[hArg]AKW-NH2) | binding affinity, fold stronger than [M]PTH(1-14) (P1R-WT): ~10 fold
4 | N.B. | H-AVSEIQLMHNLGKH-NH2 [PTH(1-14), reference compound] | 
